Where a name gives a salt, the structure may show the parent alone.

For the test, the system named is GT-1a pRLuc H771b 75 S/I subgenomic replicon cell line. The test is described as follows: HCV GT-1a replicon luciferase reporter assay. It counts as cell-based. The conditions noted are these: Hepatitis C virus, GT1A, 72 h, read-out: GT-1a (IC50) (nM). The source says: Determination of compounds HCV GT1b inhibitory replicon activity using the replicon luciferase reporter assay
The 2209-23 cell line was developed at Roche by stable transfection of the hepatoma cell line Huh-7 with a GT-1b Con1 subgenomic bicistronic replicon as previously described. Subgenomic replicon cell line was established in cured Huh7 cells, obtained from R. Bartenschlager (J. Virol. 2003 March; 77 (5):3007-19) The GT-1a H77 subgenomic replicon vector pRLuc H771b 75 S/I, was created by replacing the non structural region of the GT-1b Con1 subgenomic replicon by the one of the H77 strain, except for the first 75 amino acids of the NS3 protein that are from GT-1b Con1 strain. (J. Virol. 2001 77:5352-59) The GT-1a pRLuc H771b 75 S/I subgenomic replicon cell line was established in cured Huh7 cells, obtained from R. Bartenschlager. (J. Virol. 2003 March; 77 (5):3007-19)
All the subgenomic replicon cell lines were cultured in Dulbecco's Modified Eagle Medium (DMEM-Glutamax™-I; Invitrogen Cat #10569-010). The medium was supplemented with 10% Fetal Bovine Serum (Invitrogen Cat #10082-147), 1% penicillin/streptomycin (Mediatech Cat #30-002-CI) and 500 μg/ml of G418 (Mediatech Cat #30-234-CI). Cells were maintained at 37° C. in a humidified 5% CO2 atmosphere.
2209-23 cells were plated at a cell density of 5000 cells per well in 96 well plates (Becton Dickinson, Cat #35 3296). Cells were plated in 90 μl of Dulbecco's Modified Eagle Medium (DMEM-Glutamax™-I), (Invitrogen Cat #10569-010) medium was supplemented with 5% Fetal Bovine Serum (Invitrogen Cat #10082-147), 1% penicillin/streptomycin (Mediatech Cat #30-002-CI). The pRluc H771b 75 S/I cells were plated in 96-well plate at 3000 cells/well in DMEM-Glutamax™-I containing 5% FBS and 1% penicillin/streptomycin in 90 μl final volume. Cells were allowed to equilibrate for 24 hours at 37° C. and 5% CO2 at which time compounds were added. Compounds (or medium as a control) were added 24 hours post-plating in 3 fold dilutions at a final DMSO concentration of 1% in 10 ul volume. Renilla luciferase reporter signal was read 72 hours after addition of compounds using the Renilla Luciferase Assay System (Promega, cat #E2820). EC50 values were defined as the compound concentration at which a 50% reduction in the levels of renilla luciferase reporter was observed as compared to control samples in the absence of compound and was determined by non-linear fitting of compound dose-response data. The EC50 was approximated if maximum percentage inhibition was less than 90% and more than 70%.

On to `COC(=O)NC(C(=O)N1CCOC[C@H]1c1ncc(-c2ccc(-c3ccc(-c4cnc([C@@H]5Cc6cccc7c6N5C(=O)[C@@H](NC(=O)OC)CC7)[nH]4)cc3)cc2)[nH]1)c1ccccc1` (stereo in doubt) [Compound I-63, {(2S,5S)-2-[5-(4′-{2-[(R)-4-((S)-2-Methoxycarbonylamino-2-phenyl-acetyl)-morpholin-3-yl]-3H-imidazol-4-yl}-biphenyl-4-yl)-1H-imidazol-2-yl]-4-oxo-1,2,4,5,6,7-hexahydro-azepino[3,2,1-hi]indol-5-yl}-carbamic acid methyl ester], for which the IC50 turned out to be 7.3 nM. To `COC(=O)N[C@H]1CCc2cccc3c2N(C1=O)[C@H](c1ncc(-c2ccc(-c4ccc(-c5cnc([C@@H]6CCCN6C(=O)[C@@H](NC(=O)OC)[C@@H](C)O)[nH]5)cc4)cc2)[nH]1)C3` (stereo in doubt) [Compound I-50, {(2S,5S)-2-[5-(4-{2-[(S)-1-((S)-3-Hydroxy-2-methoxycarbonylamino-butyl)-pyrolidin-2-yl]-3H-imidazol-4-yl}-biphenyl-4-yl)-1H-imidazol-2-yl]-4-oxo-1,2,4,5,6,7-hexahydro-azepino[3,2,1-hi]indol-5-yl}-carbamic acid methyl ester] belongs 6.62 nM. `COC(=O)NC(C(=O)N1CCC[C@H]1c1ncc(-c2ccc(-c3ccc(-c4cnc([C@@H]5Cc6cccc7c6N5C(=O)[C@@H](NC(=O)OC)CC7)[nH]4)cc3)cc2)[nH]1)C1CCOCC1` (stereo partly drawn) [Compound I-48]: the IC50 amounted to 2.83 nM. To `COC(=O)N[C@H]1CCc2cccc3c2N(C1=O)[C@H](c1ncc(-c2cnc(-c4ccc(-c5cnc([C@@H]6CCCN6C(=O)[C@@H](NC(=O)OC)C(C)C)[nH]5)cc4)nc2)[nH]1)C3` [Compound I-15, ((2S,5S)-2-{5-[2-(4-{2-[(S)-1-((S)-2-Methoxycarbonylamino-3-methyl-butyryl)-pyrrolidin-2-yl]-3H-imidazol-4-yl}-phenyl)-pyrimidin-5-yl]-1H-imidazol-2-yl}-4-oxo-1,2,4,5,6,7-hexahydro-azepino[3,2,1-hi]indol-5-yl)-carbamic acid methyl ester] belongs 13.4 nM; to `COC(=O)N[C@H]1CCc2cccc3c2N(C1=O)[C@H](c1ncc(-c2ccc(-c4ccc(-c5nnc([C@@H]6CCCN6C(=O)[C@H](NC(=O)OC)c6ccccc6)[nH]5)cc4)cc2)[nH]1)C3` [Compound I-60, {(2S,5S)-2-[5-(4′-{5-[(S)-1-((R)-2-Methoxycarbonylamino-2-phenyl-acetyl)-pyrrolidin-2-yl]-4H-[1,2,4]triazol-3-yl}-biphenyl-4-yl)-1H-imidazol-2-yl]-4-oxo-1,2,4,5,6,7-hexahydro-azepino[3,2,1-hi]indol-5-yl}-carbamic acid methyl ester], 51.4 nM. `COC(=O)N[C@H]1CCc2cccc3c2N(C1=O)[C@H](c1ncc(-c2ccc(-c4ccc(-c5[nH]c([C@@H]6CCCN6C(=O)[C@@H](NC(=O)OC)C(C)C)nc5Cl)cc4)cc2)[nH]1)C3` [Compound I-30, {(2S,5S)-2-[5-(4′-{5-Chloro-2-[(S)-1-((S)-2-methoxycarbonylamino-3-methyl-butyryl)-pyrrolidin-2-yl]-3H-imidazol-4yl}-biphenyl-4-yl)-1H-imidazol-2-yl]-4-oxo-1,2,4,5,6,7-hexahydro-azepino[3,2,1-hi]indol-5-yl}-carbamic acid methyl ester]: the IC50 was 1 nM. To `COCC[C@H](NC(=O)OC)C(=O)N1CCC[C@H]1c1ncc(-c2ccc(-c3ccc(-c4cnc([C@@H]5Cc6cccc7c6N5C(=O)[C@@H](NC(=O)OC)CC7)[nH]4)cc3)cc2)[nH]1` [Compound I-46] belongs 2.96 nM; to `COC(=O)N[C@H]1CCc2cccc3c2N(C1=O)[C@H](c1ncc(-c2ccc(-c4ccc(-c5cnc([C@@H]6CCCN6C(=O)[C@@H](NC(=O)OC)C(C)C)[nH]5)cc4C#N)cc2)[nH]1)C3` [Compound I-38, {(2S,5S)-2-[5-(2′-Cyano-4′-{2-[(S)-1-((S)-2-methoxycarbonylamino-3-methyl-butyryl)-pyrrolidin-2-yl]-1H-imidazol-4-yl}-biphenyl-4-yl)-1H-imidazol-2-yl]-4-oxo-1,2,4,5,6,7-hexahydro-azepino[3,2,1-hi]indol-5-yl}-carbamic acid methyl ester], 22.4 nM.

`COC(=O)N[C@H]1CCc2cccc3c2N(C1=O)[C@H](c1ncc(-c2ccc(-c4ccc(-c5cnc([C@@H]6CCCN6C(=O)[C@@H](NC(=O)OC)C(C)C)[nH]5)cc4)cc2F)[nH]1)C3` [Compound I-36, {(2S,5S)-2-[5-(3-Fluoro-4′-{2-[(S)-1-((S)-2-methoxycarbonylamino-3-methyl-butyryl)-pyrrolidin-2-yl]-1H-imidazol-4-yl}-biphenyl-4-yl)-1H-imidazol-2-yl]-4-oxo-1,2,4,5,6,7-hexahydro-azepino[3,2,1-hi]indol-5-yl}-carbamic acid methyl ester]: the IC50 is 13.8 nM. To `COC[C@H](NC(=O)OC)C(=O)N1CCC[C@H]1c1ncc(-c2ccc(-c3ccc(-c4cnc([C@@H]5Cc6cccc7c6N5C(=O)[C@@H](NC(=O)OC)CC7)[nH]4)cc3)cc2)[nH]1` [Compound I-43] belongs 5.64 nM; to `COC(=O)N[C@H]1CCc2cccc3c2N(C1=O)[C@H](c1ncc(-c2ccc(-c4ccc(-c5cnc([C@@H]6CCCN6C(=O)[C@@H](NC(=O)OC)C(C)C)[nH]5)cc4F)cc2)[nH]1)C3` [Compound I-37, {(2S,5S)-2-[5-(2′-Fluoro-4′-{2-[(S)-1-((S)-2-methoxycarbonylamino-3-methyl-butyryl)-pyrrolidin-2-yl]-1H-imidazol-4-yl}-biphenyl-4-yl)-1H-imidazol-2-yl]-4-oxo-1,2,4,5,6,7-hexahydro-azepino[3,2,1-hi]indol-5-yl}-carbamic acid methyl ester], 5.22 nM; to `COC(=O)N[C@H]1CCc2cccc3c2N(C1=O)[C@H](c1ncc(-c2ccc(-c4ccc(-c5cnc([C@@H]6CCCN6C(=O)[C@@H](NC(=O)OC)C6CC6)[nH]5)cc4)cc2)[nH]1)C3` [Compound I-44], 11.4 nM.

As for `COC(=O)N[C@H]1CCc2cccc3c2N(C1=O)[C@H](c1ncc(-c2ccc(-c4ccc(-c5cnc([C@@H]6C[C@H](C#N)CN6C(=O)[C@@H](NC(=O)OC)C(C)C)[nH]5)cc4)cc2)[nH]1)C3` [Compound I-40, {(2S,5S)-2-[5-(4′-{2-[(2S,4S)-4-Cyano-1-((S)-2-methoxycarbonylamino-3-methyl-butyryl)-pyrrolidin-2-yl]-3H-imidazol-4-yl}-biphenyl-4-yl)-1H-imidazol-2-yl]-4-oxo-1,2,4,5,6,7-hexahydro-azepino[3,2,1-hi]indol-5-yl}-carbamic acid methyl ester], the IC50 amounted to 7.85 nM.

`COC(=O)N[C@H]1CCc2cccc3c2N(C1=O)[C@H](c1ncc(-c2ccc(-c4ccc5cc(-c6cnc([C@@H]7CCCN7C(=O)[C@@H](NC(=O)OC)C(C)C)[nH]6)ccc5c4)nc2)[nH]1)C3` [Compound I-23, ((2S,5S)-2-{4-[6-(6-{2-[(S)-1-((S)-2-Methoxycarbonylamino-3-methyl-butyryl)pyrrolidin-2-yl]-3H-imidazol-4-yl}-naphthalen-2-yl)-pyridin-3-yl]-1Himidazol-2-yl}-4-oxo-1,2,4,5,6,7-hexahydro-azepino[3,2,1-hi]indol-5-yl)-carbamic acid methyl ester di-trifluoroacetic acid salt]: the IC50 came to 0.767 nM. To `COC(=O)N[C@H]1CCc2cccc3c2N(C1=O)[C@H](c1ncc(-c2ccc(-c4ccc(-c5ccc6nc([C@@H]7CCCN7C(=O)[C@@H](NC(=O)OC)C(C)C)[nH]c6c5)nc4)cc2)[nH]1)C3` [Compound I-7, ((2S,5S)-2-{5-[4-(6-{2-[(S)-1-((S)-2-Methoxycarbonylamino-3-methyl-butyryl)-pyrrolidin-2-yl]-3H-benzoimidazol-5-yl}-pyridin-3-yl)-phenyl]-1H-imidazol-2-yl}-4-oxo-1,2,4,5,6,7-hexahydro-azepino[3,2,1-hi]indol-5-yl)-carbamic acid methyl ester] belongs 32.2 nM.

(Values after US20120230951A1 (priority 2011, published 2012).)
